Laboratory results: patent US20240166641A1, “HETEROCYCLES AND USES THEREOF” (Kumquat Biosciences Inc., priority 2021, published 2024)

Columns and labels:
[1] = biological target: T1, PTPN2 (Homo sapiens, UniProt P17706); assay: Phosphatase activity assay (Bio-Biochem-DiFMUP), PTPN2; assay type: biochemical; conditions: DiFMUP substrate, room temperature
T1 sequence (P17706 1-415): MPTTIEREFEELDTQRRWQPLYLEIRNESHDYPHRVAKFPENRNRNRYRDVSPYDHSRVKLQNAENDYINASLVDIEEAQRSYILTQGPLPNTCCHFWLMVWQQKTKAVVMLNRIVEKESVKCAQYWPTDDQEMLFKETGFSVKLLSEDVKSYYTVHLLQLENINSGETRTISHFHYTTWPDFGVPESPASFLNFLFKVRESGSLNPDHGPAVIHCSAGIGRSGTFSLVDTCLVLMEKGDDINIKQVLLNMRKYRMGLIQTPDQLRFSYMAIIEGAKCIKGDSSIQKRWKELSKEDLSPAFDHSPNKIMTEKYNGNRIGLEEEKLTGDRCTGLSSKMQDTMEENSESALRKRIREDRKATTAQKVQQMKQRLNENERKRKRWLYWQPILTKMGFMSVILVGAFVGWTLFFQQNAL
From the text: (§1) The selectivity and potency of a small molecule PTPN2 inhibitor as provided herein (e.g., a derivative of Formula I, II, III, IV; or sub-formulae thereof) against one or more protein tyrosine phosphatase (PTP) enzymes, and specifically against PTPN2, can be assessed in various ways. The one or more PTP enzymes comprise Mycobacterium protein tyrosine phosphatase A (mPTPA), Mycobacterium protein tyrosine phosphatase B (mPTPB), PTPN1 (i.e., PTP1B), PTPN2 (i.e., TC-PTP), SHP-1, SHP-2, FAP-1, Meg2, HePTP, Laforin, VHX, VHR, LMWPTP, Cdcl4A, LAR, CD45, PTPRG, a fragment thereof, a variant thereof, and a combination thereof. Selectivity and potency of a small molecule PTPN2 inhibitor is evaluated using a PTP activity inhibition assay. The assay is performed using a buffer comprising 50 millimolar (mM) Bis-Tris (pH=6.3), 2 mM EDTA, and 5 mM N,N′-dimethyl-N,N′-bis(mercaptoacetyl)hydrazine (DMH). The assay is performed using a phosphated substrate, e.g., 10 mM fluorescein diphosphate (FDP) that is stored at −20° C. Alternatively or in addition to, the assay is performed using 10 mM DiFMUP as a phosphated substrate. Each PTP enzyme is diluted in an enzyme dilution buffer comprising 50 mM Bis-Tris (pH=6.3), 2 mM EDTA, 5 mM DMH, 20% (vol./vol.) glycerol, and 0.01% (vol./vol.) Triton X-100.
(§2) The assay is carried out at room temperature in 96 well plates. A reaction mixture of 170 microliter (μL) of the assay buffer comprising 10 μM FDP or DiFMIUP is added to each well. A 10 μL volume of (i) a compound disclosed herein (e.g., PTPN2 inhibitor) dissolved in DMSO at one of 10 concentrations from a serial dilution or (ii) DMSO alone for control is added to each well. The reaction is initiated by adding 20 μL of a PTP enzyme (e.g., PTPN2) that is diluted in the enzyme dilution buffer. The phosphatase activity of the PTP enzyme is assessed by monitoring appearance of a fluorescent product (e.g., fluorescein monophosphate (FMP) from FDP, or 6,8-difluoro-7-hydroxyl-4-coumarin (DiFMU) from DiFMUP) continuously for about 15 to 30 minutes, using the SpectraMax® Gemini™ XPS Microplate Spectrofluorometer (Molecular Devices®) with excitation of 440 nm and emission at 530 nm (cutoff filter at 525 nm) for FMP and excitation at 360 nm and emission at 450 nm (cutoff filter at 435 nm) for DiFMU. The rate (e.g., the initial rate) of FMP or DiFMU formation is plotted against the concentration of the small molecule PTPN2 inhibitor, and the data is fitted (e.g., using a 4-parameter equation) to determine the inflection point of the fit as the IC50 of the small molecule PTPN2 inhibitor for a specific enzyme. Table 6 summarizes the IC50 values of compounds disclosed herein against PTPN2 and PTPN1.

[2] = biological target: T2, PTP1B (Homo sapiens, UniProt P18031); assay: Phosphatase activity assay (Bio-Biochem-DiFMUP), PTP1B; assay type: biochemical; conditions: DiFMUP substrate, room temperature
T2 sequence (P18031 1-435): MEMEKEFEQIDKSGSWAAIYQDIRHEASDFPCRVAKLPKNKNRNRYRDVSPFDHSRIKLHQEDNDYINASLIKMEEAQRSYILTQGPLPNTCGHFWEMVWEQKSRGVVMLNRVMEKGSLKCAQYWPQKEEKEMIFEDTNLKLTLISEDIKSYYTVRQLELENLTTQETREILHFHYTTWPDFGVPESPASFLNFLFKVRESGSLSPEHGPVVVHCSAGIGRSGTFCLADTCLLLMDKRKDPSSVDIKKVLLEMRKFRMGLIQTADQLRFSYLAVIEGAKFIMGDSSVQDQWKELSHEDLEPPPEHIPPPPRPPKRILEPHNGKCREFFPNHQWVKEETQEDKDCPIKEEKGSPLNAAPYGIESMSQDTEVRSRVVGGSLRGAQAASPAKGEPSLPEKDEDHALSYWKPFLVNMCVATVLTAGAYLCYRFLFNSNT
From the text: as §1, §2

SMILES	IC50 [1] [nM]	IC50 [2] [nM]
CC(C)CCN1Cc2cc(C3CC(=O)NS3(=O)=O)c(O)cc2N(C)C1=O (stereo not shown) [Compound 111, 5-(7-hydroxy-3-isopentyl-1-methyl-2-oxo-1,2,3,4-tetrahydroquinazolin-6-yl)isothiazolidin-3-one 1,1-dioxide]	> 10000	> 10000
CC(C)CCn1ccc2cc(O)c(N3CC(=O)NS3(=O)=O)c(F)c2c1=O [Compound 157]	1000 to 10000	1000 to 10000
O=C1CN(c2cc3nc(-c4cnn(CC5CC5)c4)ccc3cc2O)S(=O)(=O)N1 [Compound 188]	≤ 1000	≤ 1000
CC(C)CCN(C)c1ccc2cc(O)c(N3CC(=O)NS3(=O)=O)cc2n1 [Compound 121]	1000 to 10000	1000 to 10000
CC(C)CCN1Cc2cc(C3=CC(=O)NS3(=O)=O)c(O)cc2CC1=O [Compound 110]	1000 to 10000	1000 to 10000
CC(C)CCn1cnc2cc(O)c(N3CC(=O)NS3(=O)=O)cc2c1=O [Compound 196]	> 10000	> 10000
CN(C)C1CN(c2cc3cc(N4CC(=O)NS4(=O)=O)c(O)cc3n(C)c2=O)C1 [Compound 172]	1000 to 10000	1000 to 10000
CCN1CCC(Nc2cc3cc(N4CC(=O)NS4(=O)=O)c(O)cc3n(C)c2=O)CC1 [Compound 166]	1000 to 10000	1000 to 10000
C[C@@H](Nc1cc2cc(N3CC(=O)NS3(=O)=O)c(O)cc2n(C)c1=O)c1ccccc1 [Compound 162]	≤ 1000	≤ 1000
CN1CC=C(c2cnc3cc(O)c(C4=CC(=O)NS4(=O)=O)cc3c2)CC1 [Compound 114]	> 10000	> 10000
N#CCCCOc1ccc2cc(O)c(N3CC(=O)NS3(=O)=O)cc2n1 [Compound 175]	≤ 1000	≤ 1000
CC(C)OCCNc1ccc2cc(O)c(N3CC(=O)NS3(=O)=O)cc2n1 [Compound 138]	≤ 1000	≤ 1000
O=C1CN(c2cc3nc(OCCc4ccccc4)ccc3cc2O)S(=O)(=O)N1 [Compound 167]	≤ 1000	≤ 1000
CC(C)CCNc1ccc2cc(O)c(C3CC(=O)NS3(=O)=O)cc2n1 (stereo not shown) [Compound 109]	> 10000	1000 to 10000
C[C@H](Nc1cc2cc(N3CC(=O)NS3(=O)=O)c(O)cc2n(C)c1=O)c1ccccc1 [Compound 194]	1000 to 10000	≤ 1000
O=C1CN(c2cc3cc(C(=O)NCCc4ccccc4)sc3cc2O)S(=O)(=O)N1 [Compound 170]	≤ 1000	≤ 1000

SMILES	IC50 [1] [nM]	IC50 [2] [nM]
Cn1c(=O)c(NC2CCN(S(C)(=O)=O)C2)cc2cc(N3CC(=O)NS3(=O)=O)c(O)cc21 (stereo not shown) [Compound 191]	≤ 1000	≤ 1000
O=C1C=C(c2cc3cc(-c4cccnc4)cnc3cc2O)S(=O)(=O)N1 [Compound 115, 5-(7-hydroxy-3-(pyridin-3-yl)quinolin-6-yl)isothiazol-3(2H)-one 1,1-dioxide]	> 10000	1000 to 10000
N#Cc1cccc(CCOc2ccc3cc(O)c(N4CC(=O)NS4(=O)=O)cc3n2)c1 [Compound 159]	≤ 1000	≤ 1000
Cn1c(=O)c(NCCCCC#N)cc2cc(N3CC(=O)NS3(=O)=O)c(O)cc21 [Compound 193]	≤ 1000	≤ 1000
Cn1c(=O)c(NCCc2ccccc2)cc2cc(N3CC(=O)NS3(=O)=O)c(O)cc21 [Compound 123, 5-(7-hydroxy-1-methyl-2-oxo-3-(phenethylamino)-1,2-dihydroquinolin-6-yl)-1,2,5-thiadiazolidin-3-one 1,1-dioxide]	≤ 1000	≤ 1000
CC(C)CCNc1ccc2cc(O)c(N3C(C)C(=O)NS3(=O)=O)cc2n1 (stereo not shown) [Compound 137, 5-(6-hydroxy-2-(isopentylamino)quinolin-7-yl)-4-methyl-1,2,5-thiadiazolidin-3-one 1,1-dioxide]	≤ 1000	≤ 1000
O=C1CN(c2cc3nc(OCCN4CCC4)ccc3cc2O)S(=O)(=O)N1 [Compound 163]	> 10000	> 10000
Cn1c(=O)c(NCC(C)(F)F)cc2cc(N3CC(=O)NS3(=O)=O)c(O)cc21 [Compound 173]	≤ 1000	≤ 1000
O=C1CN(c2cc3nc(NCCc4ccccn4)ccc3cc2O)S(=O)(=O)N1 [Compound 126]	≤ 1000	≤ 1000
CC(C)CCNc1ccc2cc(O)c(C3=CC(=O)NS3(=O)=O)cc2n1 [Compound 106, 5-(6-hydroxy-2-(isopentylamino)quinolin-7-yl)isothiazol-3(2H)-one 1,1-dioxide]	1000 to 10000	≤ 1000
CC(C)CCNC(=O)c1cc2cc(N3CC(=O)NS3(=O)=O)c(O)cc2s1 [Compound 132]	≤ 1000	≤ 1000
Cn1c(=O)c(NCCC2CCC(F)(F)CC2)cc2cc(N3CC(=O)NS3(=O)=O)c(O)cc21 [Compound 201]	≤ 1000	≤ 1000
CC(C)OCCNc1cc2cc(N3CC(=O)NS3(=O)=O)c(O)cc2n(C)c1=O [Compound 195]	≤ 1000	≤ 1000
Cn1c(=O)c(NCCC2CC2)cc2cc(N3CC(=O)NS3(=O)=O)c(O)cc21 [Compound 168]	1000 to 10000	≤ 1000
CC(C)CCOc1cc2cc(N3CC(=O)NS3(=O)=O)c(O)cc2n(C)c1=O [Compound 160]	≤ 1000	≤ 1000
O=C1CN(c2cc3nc(NCCc4ccccc4)ccc3cc2O)S(=O)(=O)N1 [Compound 118]	≤ 1000	≤ 1000
